No end group written: not given here.
What was measured:
[1] = biological target: T1, FPRL1 (Homo sapiens, UniProt P25090); test: Competitive radioligand binding assay ([125I] WKYMVm) to FPRL1 in CHO transfected cells; set-up: expressed in transfected cells; host or cells: CHO transfected cells; settings: 0.025 nM [125I] WKYMVm, 90 minutes at 25° C.; read-out: IC50, inhibition of W peptide binding
T1 sequence (P25090 1-351): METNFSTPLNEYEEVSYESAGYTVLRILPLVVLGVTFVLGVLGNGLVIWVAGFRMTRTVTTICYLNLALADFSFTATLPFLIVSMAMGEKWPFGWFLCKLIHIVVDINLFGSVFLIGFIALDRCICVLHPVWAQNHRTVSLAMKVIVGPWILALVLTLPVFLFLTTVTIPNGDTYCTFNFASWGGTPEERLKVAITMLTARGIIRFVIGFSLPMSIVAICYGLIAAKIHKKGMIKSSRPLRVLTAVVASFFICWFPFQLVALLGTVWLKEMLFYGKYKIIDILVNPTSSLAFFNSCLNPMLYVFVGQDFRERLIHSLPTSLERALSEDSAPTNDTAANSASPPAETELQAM
Procedure: The specific binding of Peptide 58 (SEQ ID NO:1) to FPRL1 was analyzed by testing its ability to compete with 0.025 nM [^125I] WKYMVm (W peptide), a known agonist of FPRL1, for binding to FPRL1 in CHO transfected cells. CKβ8-1 (aa 46-137), another known ligand of FPRL1 was used as a positive control in this assay (Chiang et al 2006, Pharmacological Reviews 58, 463-487). Peptides were incubated with cells for 90 minutes at 25° C., in the presence of Incubation Buffer (50 mM HEPES, pH 7.4, 100 mM NaCl, 5 mM KCl, 5 mM MgCl2, 2 mM Ca Cl2, 0.5% BSA) and the amount of radioactive W peptide was measured.

[2] = biological target: T1, FPRL1; test: Calcium flux in CHO-K1 cells co-transfected with FPRL1 and Gα16; type: cell-based; set-up: expressed in transfected cells; host or cells: CHO-K1 (ATCC-CCL-61), transient co-transfection
Procedure: The assay was carried out in CHO cells were transiently transfected with the GPCR of choice, by utilizing the promiscuous Gα16 to divert signaling to the Gq pathway, thus enabling readout of GPCR activation by testing for Calcium flux as described by Liu et al 2003 (Biomol Screen 8, 39-49).
All the peptides thus obtained were tested for their ability to change calcium flux in CHO—K1 cells (ATCC-CCL-61) transiently co-transfected with an expression vector containing the GPCR of choice and expression vector containing the Gα16 encoding cDNA. Expression constructs containing cDNA clones for MrgX1, MrgX2, Mas or FPRL1 were commercially obtained in one of the following expression vectors: pcDNA3.1, pCMV6, or MO2.
Transient transfections were performed using CHO—K1 cells as host cells. Cells (12 million) were plated into T75 flasks on the day preceding transfection. Cells were transfected with the appropriate GPCR expression vector and with a vector expressing Gα16 using a lipid-based reagent, MTI, according to the manufacturer's recommendation. Cells were transfected for 5 hours, then re-plated into 96-well dishes (60,000 cells per well) and grown overnight.
On the day of the experiment, cells were loaded with Fluo4-NW (Invitrogen) according to the manufacturer's recommendation. Plates were loaded into a FlexStation™ (Molecular Devices) plate reader and fluorescence was monitored. Seventeen seconds following initiation of reading, cells were stimulated with the indicated agonist/compound at final concentration of 1 μM. Each 96 well plate contained cells transfected with one GPCR expression vector and each of the examined peptides was tested in triplicate.
We defined a hit as a peptide which elicited a clear and distinct increase in intracellular calcium that is clearly visible and statistically significant upon examination of the calcium trace for at least two repeats. The criterion for statistical significance was a p-value lower than 0.001 in a t-test comparing the levels of calcium before and after peptide addition.
Based on dose response experiments, EC50 best fit values were calculated by non-linear regression of sigmoidal dose-response curves, using Prism version 4 (GraphPad Software Inc., San Diego, Calif.). The formulae for the sigmoidal dose-response curves was defined as Y=Bottom+(Top−Bottom)/(1+10^ (LogEC50−X)*HillSlope))
The ability of Peptides to change calcium flux was examined in CHO—K1 cells co-transfected with FPRL1 and Gal 6.

[3] = tested on: Zymosan-induced murine dorsal air pouch model; type: in vivo, mice; settings: 200 μg/mouse i.v., 4 h
Procedure: In order to analyze the ability of P58 to exert in vivo effects via the FPRL1 receptor, an acute experimental model of inflammation, the Zymosan-induced murine dorsal air pouch model, was used.
Male out-bred Swiss albino mice were purchased from Harlan, UK (T.O. strain) and maintained on a standard chow pellet diet with tap water ad libitum and a 12:00 h light/dark cycle. All animals were housed for 7 days prior to experimentation to allow body weight to reach ˜30 g on the day of the experiment.
Drugs were stored at −20° C. and defrosted on the day of the experiment. Peptide P58 was provided lyophilized; it was taken back to room temperature and dissolved with sterile PBS before use to make an initial 1 mg/ml solution. […]
Flow cytometry was performed using FACScan analyser (Becton Dickinson, Cowley, UK) with air-cooled 100 mW argon laser tuned to 488 nm connected to an Apple Macintosh G3 computer running Cell Quest II software. […] Cells positive for GR-1 were detected in the FL2 channel (wavelength of 548 nm). Data are expressed as percentage of positive cells (in relation to the specific mAb). […] Once determined, quadrants were rigorously maintained for all analyses.
Data are shown for single mice, and also shown as mean±S.E. of (n) mice per group. Statistical differences were determined by ANOVA, plus Student Newman Keuls test. […]

Substance	IC50 [1] [nM]	calcium flux relative to the negative control ([2]; 1 μM, three wells, about 20 to 90 seconds)	calcium flux, P58 and derivatives ([2]; dose response)	inhibition of leukocyte accumulation triggered by zymosan A [3]	inhibition of neutrophil (GR-1+) accumulation triggered by zymosan A ([3]; FACS) [%]
TIPMFVPESTSKLQKFTSWFM-NH2 [Peptide P58]	189	increased calcium flux	elicited calcium flux	–	–
Ac2-26: a peptide derived from the N-terminus of AnnexinI; known FPRL1 agonist possessing anti-inflammatory activity; positive control (AMVSEFLKQAWFIENEEQEYVQTVK)	–	–	–	inhibited significantly	52

Source: patent publication US8349801B2, “Peptide ligands for G-protein coupled receptors” (priority 2006, dated 2013)
